# Measured values reported in US8648176B2, “Engineered proteins with high affinity for DOTA chelates” (Massachusetts Institute of Technology, priority 2009, dated 2014).
# “And” between values parts separate entries of the source, which are not always exact repeats. Equal entries are not always repeated.
# B1: 2D12.5ds: original 2D12.5 scFv with the addition of the intramolecular disulfide bond and removed glycosylation site (SEQ ID NO:2) (protein)
# scFv: QVKLQESGPGLVQPSQSLSITCTVSGFSLTDYGVHWVRQSPGKGLEWLGVIWSGGGTAYTAAFISRLNIYKDNSKNQVFFEMNSLQAEDTAMYYCARRGSYPYNYFDVWGCGTTVTVSSGGGGSGGGGSGGGGSQAVVTQESALTTSPGETVTLTCRSSTGAVTTSNYANWVQEKPDHCFTGLIGGNNNRPPGVPARFSGSLIGDKAALTIAGTQTEDEAIYFCALWYSNHWVFGGGTRLTVLG
# B2: C8.2.5: high-affinity disulfide-stabilized DOTA-binding scFv affinity matured from 2D12.5; residues 1-244 are SEQ ID NO:12 (protein)
# scFv: HVKLQESGPGLVQPSQSLSLTCTVSGFSLTDYGVHWVRQSPGKGLEWLGVIWSGGGTAYNTALISRLNIYRDNSKNQVFLEMNSLQAEDTAMYYCARRGSYPYNYFDAWGCGTTVTVSSGGGGSGGGGSGGGGSQAVVIQESALTTPPGETVTLTCGSSTGAVTASNYANWVQEKPDHCFTGLIGGHNNRPPGVPARFSGSLIGDKAALTIAGTQTEDEAIYFCALWYSDHWVIGGGTRLTVLGGSEQKLISEEDL
# Legend:
# [1] = test system: CEA-positive (LS174T) tumor; assay: Three-step PRIT (bsAb, dextran-DOTA-Y clearing agent, radiolabeled DOTA) biodistribution in xenograft mice; type: in vivo; conditions: for tumor uptake/activity, antigen-positive LS174T tumor: PRIT protocol with bsAb and dextran-DOTA-Y
# Description: (§1) Radiolabeling. DOTA compounds were dissolved at 0.5 mM in ammonium acetate pH 5.6. 1-2 mCi ^177LuCl3 (PerkinElmer, Waltham, Mass.) or ^111InCl3 (Cardinal Health, Dublin, Ohio) were added to the metal chelate and incubated for 1-2 h at 85-95 C. The radiolabeled compounds were purified by RP-HPLC (Humblet et al., Contrast Media Mol. Imaging. 1:196-211, 2006; Misra et al., J. Nucl. Med. 48:1379-1389, 2007) with gamma detection on a 4.6×75 mm Symmetry C18 column using a linear gradient from 0% to 40% B over 15 minutes, at a flow rate of 1 mL/min, where A=10 mM TEAA and B=methanol. The purified compounds were dried under vacuum, resuspended in saline, and filter-sterilized.
# (§2) Animal models. All animal handling was performed in accordance with BIDMC IACUC guidelines. Male NCRU-nu/nu mice were purchased from Taconic Farms (Germantown, N.Y.). For biodistribution and tumor uptake, 100-150 μCi ^177Lu- or ^111In-labeled hapten was injected intravenously into the mice. Blood was collected from the tail vein using micro-capillary tubes and counted on a model 1470 Wallac Wizard™ (Perkin Elmer, Wellesley, Mass.) 10-detector gamma counter. Mice were euthanized by intraperitoneal injection of pentobarbital followed by cervical dislocation, a method consistent with the recommendations of the Panel on Euthanasia of the American Veterinary Medical Association. Organs and tumors were resected, washed in PCS three times, weighed, and counted as described above.
# We next tested a protocol involving all three reagents to determine the efficacy of our engineered PRIT system. […] After an additional 1 h, 100-150 μCi ^177Lu-DOTA was injected intravenously. At 4 h post-injection of radiolabeled DOTA, tumor uptake was 7.44+/−0.41% ID/g in the antigen-positive tumor, 84-fold higher than the tumor uptake observed for ^177Lu-DOTA alone. Activity was also higher in non-tumor tissue due to binding of ^177Lu-DOTA to residual bsAb in the extravascular compartment. Tumor uptake in the antigen-negative tumor was 9.82+/−0.35% ID/g at 4 h, similar to the antigen-positive tumor due to nonspecific uptake from enhanced permeability and retention (EPR) of the bsAb. […] The LS174T tumor to blood ratio increased from 18+/−2 at 4 h to 380+/−90 at 24 h and was greater than 450 at 48 h. […] The LS174T tumor to kidney ratio increased from approximately 8 at 4 h to about 20 at 24 and 48 h. SPECT/CT images confirmed the quantitative biodistribution data with high PSECT signal in the CEA-positive tumors, lower signal in the CEA-negative tumor and no observable signal in non-tumor tissue.
# The pretargeted protocol described above was used to analyze the effect of affinity on the tumor uptake of radiolabeled DOTA. […] The 24 h organ/tissue biodistribution was determined in tumor-bearing mice with each of the four radiolabeled DOTA compounds. […] The activity in the C6 antigen-negative tumor increased with affinity, presumably due to nonspecific uptake of bsAb. The activity in the non-tumor tissues is also higher for the higher affinity compounds due to the higher affinity binding to residual bsAb.
# [2] = Organ uptake of DOTA-based compounds in normal CD1 mice; type: in vivo; conditions: 4 h p.i., compared to radiolabeled DOTA-biotin and DOTA-Bn
# [3] = MIRD dosimetry estimate from PRIT mouse biodistribution; type: in vivo; conditions: 70 kg man
# Description: Dosimetry. Radiation doses absorbed by normal tissues other than the red marrow were calculated according to the MIRD scheme. Percent injected activity in tumor, kidneys, liver, blood, and whole-body were calculated from activity measurements. The activity at time 0 was assumed to be 4% ID/g in the kidney and liver, 50% ID/g in the blood, 0% ID/g in the tumor and 100% in the whole-body. Isotope decay-adjusted activity was integrated over time, with a conservative assumption that the 48 h organ % ID remained constant thereafter. S values for ^90Y and ^177Lu were used to calculate dosimetry estimates in an adult male reference (Stabin and Siegel, Health Phys. 85:294-310, 2003). The red marrow dose was calculated as described (Wessels et al., J. Nucl. Med. 45:1725-1733, 2004) from blood activity measurements. […] Tumor doses were calculated from self-dose only using S-factors for a unit density sphere of size 500 g (the average LS174T tumor size scaled by 2000).
# From the PRIT organ biodistribution data, the radiation dose to the kidney, liver, red marrow, and antigen-positive tumor was estimated for a 70 kg person for ^90Y and ^177Lu. […] The estimated doses to the kidney, liver, and red marrow were calculated from both the self-dose and cross-dose, wherein the whole-body activity was used to determine the cross-dose. The estimated dose to the tumor was determined from self-dose only. […]
# CEA-negative (C6) tumor = assay: Three-step PRIT (bsAb, dextran-DOTA-Y clearing agent, radiolabeled DOTA) biodistribution in xenograft mice; type: in vivo; conditions: PRIT protocol
# Description: as §1, §2
# We next tested a protocol involving all three reagents to determine the efficacy of our engineered PRIT system. […] After an additional 1 h, 100-150 μCi ^177Lu-DOTA was injected intravenously. At 4 h post-injection of radiolabeled DOTA, tumor uptake was 7.44+/−0.41% ID/g in the antigen-positive tumor, 84-fold higher than the tumor uptake observed for ^177Lu-DOTA alone. […] SPECT/CT images confirmed the quantitative biodistribution data with high PSECT signal in the CEA-positive tumors, lower signal in the CEA-negative tumor and no observable signal in non-tumor tissue.
# DOTA-Bn-biotin-Y [4] = assay: Dissociation kinetics, yeast surface-displayed scFv; type: binding
# Description: Dissociation Kinetics. To determine the dissociation rate, koff, for DOTA-Bn-biotin complexes, cells were induced and washed as above, and 1×10^7 cells were incubated in 1 mL PBSA with 1 nM DOTA-Bn-biotin-metal for 1 h to reach saturation. Subsequently, the yeast were washed with 1 mL PBSA, resuspended in 1 mL PBSA with 1 μM (excess) non-biotinylated antigen as competitor and split into 100 μL aliquots. These aliquots were incubated at 37° C. for different lengths of time, then washed with cold PBSA and left on ice. All samples were simultaneously stained with streptavidin-phycoerythrein for 10-20 min and analyzed by flow cytometry. The data was fit to the following equation by least squares regression, varying MFUmin, MFUrange and koff: MFUtot=MFUmin+MFUrangee^−k^off^t For nonbiotinylated antigens, the procedure was identical except that initial saturation was with the nonbiotinylated antigen and DOTA-Bn-biotin-metal was used as competitor. The data followed the expression MFUtot=MFUmin+MFUrange(1−e^−k^off^t)
# DOTA-Bn-biotin-Y [5] = assay: KD by titration of yeast surface-displayed scFv, flow cytometry; type: binding; conditions: hapten DOTA-Bn-Biotin, metal Y, 37° C., mean ± SD
# Description: Briefly, yeast expressing an scFv clone on their surface were grown, washed with PBSA and incubated with various concentrations of DOTA-Bn-biotin-metal long enough to allow for at least a 95% approach to equilibrium. Generally, 5×10^5 induced cells were used for each concentration point. When antigen concentrations less than 10 pM were assayed, the titration was performed with 2.5×10^4 induced and 7.5×10^5 non-induced cells to ensure antigen excess over the scFv without requiring impractically large volumes. The addition of non-induced cells aids pelleting during centrifugation (Hackel et al., J. Mol. Biol. 381:1238-1252, 2008). When antigen concentrations greater than 100 nM were used, non-specific antigen binding to the yeast surface was taken into account. Yeast expressing an irrelevant scFv on their surface were treated in the same manner as the yeast displaying the scFv of interest, and mean total phycoeryhthrein fluorescence (MFUtot) due to non-specific binding was measured by flow cytometry and averaged over three replicates. This value was subtracted from the MFUtot for the yeast of interest, and the data was fit by least-squares regression.
# DOTA-Y = assay: KD by competition with DOTA-Bn-biotin-Y, yeast surface-displayed scFv; type: binding; conditions: hapten DOTA, metal Y; mean ± SD
# Description: (§3) KD Measurements for DOTA-metal and DOTA-Bn-metal. To determine the KD for scFv binding to nonbiotinylated haptens, the above protocol was modified to a competition-based assay as follows. […] Incubation, staining, and flow cytometry analysis was the same as that for biotinylated antigen. MFUtot as a function of the concentration of the nonbiotinylated antigen ([Ag]), a normalization constant (MFUrange), the minimal total mean fluorescence (MFUmin), the KD for DOTA-Bn-biotin-Y (KD, biot), DOTA-Bn-biotin-Y concentration ([Agbiot]), and the KD for the antigen of interest (KD) follows this modified equation:
# (§4) [formula] The data was fit by least squares regression as before, varying MFUmin, MFUrange and KD.
# DOTA-Bn-Ga = assay: as above; type: binding; conditions: hapten DOTA-Bn, metal Ga; mean ± SD
# Description: as §3, §4
# DOTA-Lu = assay: as above; type: binding; conditions: hapten DOTA, metal Lu; mean ± SD
# Description: as §3, §4
# DOTA-Gd = assay: as above; type: binding; conditions: hapten DOTA, metal Gd; mean ± SD
# Description: as §3, §4
# DOTA-Bn-In = assay: as above; type: binding; conditions: hapten DOTA-Bn, metal In; mean ± SD
# Description: as §3, §4
# DOTA-Ga = assay: as above; type: binding; conditions: hapten DOTA, metal Ga; mean ± SD
# Description: as §3, §4
# DOTA-Bn-Lu = assay: as above; type: binding; conditions: hapten DOTA-Bn, metal Lu; mean ± SD
# Description: as §3, §4
# DOTA-In = assay: as above; type: binding; conditions: hapten DOTA, metal In; mean ± SD
# Description: as §3, §4
# DOTA-Bn-Gd = assay: as above; type: binding; conditions: hapten DOTA-Bn, metal Gd; mean ± SD
# Description: as §3, §4
# DOTA-Bn-Y = assay: as above; type: binding; conditions: hapten DOTA-Bn, metal Y; mean ± SD
# Description: as §3, §4
molecule,measurement,setting,value
O=C([O-])CN1CCN(CC(=O)[O-])CCN(CC(=O)[O-])CCN(CC(=O)[O-])CC1.[111In+3] [^111In-DOTA],LS174T tumor to kidney ratio,"[1]; 24 h, PRIT protocol",1.2+/−0.4
same,"tumor uptake/activity, antigen-positive LS174T tumor",[1]; 24 h,0.5+/−0.1 % ID/g
O=C([O-])CN1CCN(CC(=O)[O-])CCN(CC(=O)[O-])CCN(CC(=O)[O-])CC1.[177Lu+3].[H+] [^177Lu-DOTA],liver and intestine uptake,[2],slightly lower
same,LS174T tumor to blood ratio,"[1]; 4 h, PRIT protocol",18+/−2
same,LS174T tumor to kidney ratio,"[1]; 4 h, PRIT protocol",approximately 8
same,tumor uptake relative to hapten alone,"[1]; 4 h, antigen-positive tumor, versus ^177Lu-DOTA alone",84 fold
same,"tumor uptake, antigen-positive tumor","[1]; 4 h post-injection of radiolabeled DOTA, 500 μg bsAb, 250 μg dextran-DOTA-Y 24 h later, hapten 1 h later",7.44+/−0.41 % ID/g
same,"tumor uptake/activity, antigen-positive LS174T tumor",[1]; 24 h,~14 % ID/g and 14.3+/−1.8 % ID/g
same,tumor uptake relative to hapten of ~1 nM affinity,"[1]; 24 hours, affinity ~100 pM versus ~1 nM",8 fold
same,tumor uptake relative to hapten of ~10 nM affinity,"[1]; 24 hours, affinity ~100 pM versus ~10 nM",28 fold
same,blood activity,"[1]; 48 h, PRIT protocol",not measurable above background
same,estimated dose to the tumor,"[3]; at a red marrow dose of 1.5 Gy, estimated from mouse biodistribution, self-dose only",156 Gy
same,dose-limiting organ,[3]; predicted from radiation dose estimates,red marrow
same,"tumor uptake, antigen-negative tumor",CEA-negative (C6) tumor; 4 h,9.82+/−0.35 % ID/g
same,"tumor activity, antigen-negative tumor",CEA-negative (C6) tumor; 24 h,4.23+/−0.54 % ID/g
same,"tumor activity, antigen-negative tumor",CEA-negative (C6) tumor; 48 h,2.89+/−2.28 % ID/g
B1,dissociation half-time,DOTA-Bn-biotin-Y [4],5.5 min
same,Kd,DOTA-Bn-biotin-Y [5],3700 ± 3600 pM
B2,Kd,DOTA-Y,103 ± 35 pM
same,Kd,DOTA-Bn-Ga,52000 ± 12000 pM
same,Kd,DOTA-Lu,390 ± 14 pM
same,Kd,DOTA-Gd,149 ± 6 pM
same,Kd,DOTA-Bn-In,1010 ± 40 pM
same,Kd,DOTA-Ga,216000 ± 26000 pM
same,Kd,DOTA-Bn-Lu,10.8 ± 2.5 pM
same,Kd,DOTA-In,23700 ± 3700 pM
same,Kd,DOTA-Bn-Gd,34 ± 5.3 pM
same,Kd,DOTA-Bn-Y,15.4 ± 2 pM
same,dissociation half-time,DOTA-Bn-biotin-Y [4],over 5 hours
same,Kd,DOTA-Bn-biotin-Y [5],8.2 ± 1.9 pM
